Each block holds one compound with its values, some of them ahead of it.
Key:
Format in all cases: cell-based
[1] = system: T315I-KOPM28 cells; assay: human CML cell proliferation inhibition; conditions: 72 hours, Cell Counting Kit-8
Procedure: (§1) In order to evaluate the therapeutic effect of the compound according to the present invention on chronic myelogenous leukemia (CML), the following experiment was performed, and the results are shown in Table 6 below. Inhibitory activity to Bcr-Abl kinase was evaluated through the experiment using TCCS and KOPM28 cells, and inhibitory activity to T315I-Bcr-Abl kinase was evaluated through the experiment using T315I-TCCS and T315I-KOPM28 cells.
(§2) Human chronic myelogenous leukemia (CML) cells used in the experiment were TCCS, T315I-TCCS, KOPM28 and T315I-KOPM28, and the four types of cells were provided by University of Yamanashi.
(§3) Four types of human CML cells were each seeded in 96-well plates at the density of 1×10^4/90 μL/well. A culture solution containing 9 concentrations (0.000256 to 100 μM) of each example compound serially diluted in 5 folds or DMSO (control) were added to the plate (10 μL/well) to a final concentration of 0 to 10 μM. The plate was incubated in a 37° C. CO2 incubator for 72 hours.
(§4) After incubation for 72 hours, the plate treated with the compound was treated with Cell Counting Kit-8 (Dojindo Molecular Technologies, Inc) solution at the concentration of 10 μL/well, and then mixed well. Then, the plate was incubated in a CO2 incubator at 37° C. for 2 hours, and absorbance at 450 nm was measured with a microplate reader. Data were expressed as percentage compared to vehicle treated cells and GI50 values were calculated using GraphPad Prism 8.0 (GraphPad software Inc., San Diego).

[2] = system: T315I-TCCS cells; assay: human CML cell proliferation inhibition; conditions: 72 hours, Cell Counting Kit-8
Procedure: as §1, §2, §3, §4

[3] = system: TCCS cells; assay: human CML cell proliferation inhibition; conditions: 72 hours, Cell Counting Kit-8
Procedure: as §1, §2, §3, §4

[4] = system: KOPM28 cells; assay: human CML cell proliferation inhibition; conditions: 72 hours, Cell Counting Kit-8
Procedure: as §1, §2, §3, §4

[5] = system: T315I-Bcr-Abl (Ba/F3); assay: Ba/F3 cell proliferation inhibition; conditions: BaF3; 72 hours, Cell Counting Kit-8
Procedure: as §3, with “[…] lymphocyte cells, Parental (Ba/F3) and T315I-Bcr-Abl (Ba/F3)” for “Four types of human CML cells”, “were” for “were each”, “(0.015” for “(0.000256”, “3” for “5”, “[…])” for “μL/well)”
as §4, with “5.0” for “8.0”, “Diego) […].” for “Diego).”

[6] = system: Parental (Ba/F3); assay: Ba/F3 cell proliferation inhibition; conditions: BaF3; 72 hours, Cell Counting Kit-8
Procedure: as §3, with “[…] lymphocyte cells, Parental (Ba/F3) and T315I-Bcr-Abl (Ba/F3)” for “Four types of human CML cells”, “were” for “were each”, “(0.015” for “(0.000256”, “3” for “5”, “[…])” for “μL/well)”
as §4, with “5.0” for “8.0”, “Diego) […].” for “Diego).”

GI50 [5]: 500 to 5000 nM
SMILES: Cc1cc(F)c(C(=O)Nc2ccc(CN3CCN(S(C)(=O)=O)CC3)c(C(C)(C)C#N)c2)cc1C#Cc1cnc2c(Nc3cnn(C)c3)cccn12 [Example 45, N-(3-(2-cyanopropan-2-yl)-4-((4-(methylsulfonyl)piperazin-1-yl)methyl)phenyl)-2-fluoro-4-methyl-5-((8-((1-methyl-1H-pyrazol-4-yl)amino)imidazo[1,2-a]pyridin-3-yl)ethynyl)benzamide]
GI50 [1]: > 100 nM
GI50 [2]: > 100 nM
GI50 [3]: < 10 nM
GI50 [4]: < 10 nM
GI50 [6]: > 5000 nM

GI50 [5]: 50 to 500 nM
SMILES: Cc1cc(F)c(C(=O)Nc2cc(-c3ccncc3)cc(C(F)(F)F)c2)cc1C#Cc1cnc2c(Nc3cn[nH]c3)cccn12 [Example 97, 5-((8-((1H-pyrazol-4-yl)amino)imidazo[1,2-a]pyridin-3-yl)ethynyl)-2-fluoro-4-methyl-N-(3-(pyridin-4-yl)-5-(trifluoromethyl)phenyl)benzamide]
GI50 [1]: > 100 nM
GI50 [2]: 100 nM
GI50 [3]: < 10 nM
GI50 [4]: < 10 nM
GI50 [6]: > 5000 nM

GI50 [5]: < 50 nM
SMILES: Cc1cc(F)c(C(=O)Nc2cc(CN3CCC(N(C)C)C3)cc(C(F)(F)F)c2)cc1C#Cc1cnc2c(Nc3cnn(C)c3)cccn12 (stereo not drawn) [Example 68, N-(3-((3-(dimethylamino)pyrrolidin-1-yl)methyl)-5-(trifluoromethyl)phenyl)-2-fluoro-4-methyl-5-((8-((1-methyl-1H-pyrazol-4-yl)amino)imidazo[1,2-a]pyridin-3-yl)ethynyl)benzamide]
GI50 [1]: 100 nM
GI50 [2]: 100 nM
GI50 [3]: < 10 nM
GI50 [4]: < 10 nM
GI50 [6]: 500 to 5000 nM

GI50 [5]: 50 to 500 nM
SMILES: Cc1cc(F)c(C(=O)Nc2ccc(CN3CCC(N(C)C)C3)c(C(C)(C)C#N)c2)cc1C#Cc1cnc2c(Nc3cnn(C)c3)cccn12 (stereo not drawn) [Example 41, N-(3-(2-cyanopropan-2-yl)-4-((3-(dimethylamino)pyrrolidin-1-yl)methyl)phenyl)-2-fluoro-4-methyl-5-((8-((1-methyl-1H-pyrazol-4-yl)amino)imidazo[1,2-a]pyridin-3-yl)ethynyl)benzamide]
GI50 [1]: > 100 nM
GI50 [2]: > 100 nM
GI50 [3]: < 10 nM
GI50 [4]: < 10 nM
GI50 [6]: 500 to 5000 nM

GI50 [5]: 50 to 500 nM
SMILES: Cc1cc(F)c(C(=O)Nc2cc(-c3cccnc3)cc(C(C)(C)C#N)c2)cc1C#Cc1cnc2c(Nc3cnn(C)c3)cccn12 [Example 18, N-(3-(2-cyanopropan-2-yl)-5-(pyridin-3-yl)phenyl)-2-fluoro-4-methyl-5-((8-((1-methyl-1H-pyrazol-4-yl)amino)imidazo[1,2-a]pyridin-3-yl)ethynyl)benzamide]
GI50 [1]: 100 nM
GI50 [2]: 100 nM
GI50 [3]: < 10 nM
GI50 [4]: < 10 nM
GI50 [6]: > 5000 nM

GI50 [5]: < 50 nM
SMILES: Cc1cc(F)c(C(=O)Nc2ccc(CN3CCN(CCO)CC3)c(C(C)(C)C#N)c2)cc1C#Cc1cnc2c(Nc3cn[nH]c3)cccn12 [Example 92, 5-((8-((1H-pyrazol-4-yl)amino)imidazo[1,2-a]pyridin-3-yl)ethynyl)-N-(3-(2-cyanopropan-2-yl)-4-((4-(2-hydroxyethyl)piperazin-1-yl)methyl)phenyl)-2-fluoro-4-methylbenzamide]
GI50 [1]: 100 nM
GI50 [2]: 100 nM
GI50 [3]: < 10 nM
GI50 [4]: < 10 nM
GI50 [6]: 500 to 5000 nM

GI50 [5]: < 50 nM
SMILES: Cc1cn(-c2cc(NC(=O)c3cc(C#Cc4cnc5c(Nc6cn[nH]c6)cccn45)c(C)cc3F)cc(C(C)(C)C#N)c2)cn1 [Example 75, 5-((8-((1H-pyrazol-4-yl)amino)imidazo[1,2-a]pyridin-3-yl)ethynyl)-N-(3-(2-cyanopropan-2-yl)-5-(4-methyl-1H-imidazol-1-yl)phenyl)-2-fluoro-4-methylbenzamide]
GI50 [1]: 100 nM
GI50 [2]: 100 nM
GI50 [3]: < 10 nM
GI50 [4]: < 10 nM
GI50 [6]: > 5000 nM

GI50 [5]: < 50 nM
SMILES: Cc1cc(F)c(C(=O)Nc2cc(Cn3cncn3)cc(C(C)(C)C#N)c2)cc1C#Cc1cnc2c(Nc3cnn(C)c3)cccn12 [Example 38, N-(3-((1H-1,2,4-triazol-1-yl)methyl)-5-(2-cyanopropan-2-yl)phenyl)-2-fluoro-4-methyl-5-((8-((1-methyl-1H-pyrazol-4-yl)amino)imidazo[1,2-a]pyridin-3-yl)ethynyl)benzamide]
GI50 [1]: 100 nM
GI50 [2]: < 10 nM
GI50 [3]: < 10 nM
GI50 [4]: < 10 nM
GI50 [6]: > 5000 nM

GI50 [5]: 500 to 5000 nM
SMILES: Cc1cc(F)c(C(=O)Nc2ccc(CN3CC(OC(C)C)C3)c(C(F)(F)F)c2)cc1C#Cc1cnc2c(Nc3cnn(C)c3)cccn12 [Example 62, 2-fluoro-N-(4-((3-isopropoxyazetidin-1-yl)methyl)-3-(trifluoromethyl)phenyl)-4-methyl-5-((8-((1-methyl-1H-pyrazol-4-yl)amino)imidazo[1,2-a]pyridin-3-yl)ethynyl)benzamide]
GI50 [1]: > 100 nM
GI50 [2]: > 100 nM
GI50 [3]: < 10 nM
GI50 [4]: < 10 nM
GI50 [6]: > 5000 nM

GI50 [5]: 50 to 500 nM
SMILES: Cc1cc(F)c(C(=O)Nc2cc(-c3ccncc3)cc(C(C)(C)C#N)c2)cc1C#Cc1cnc2c(Nc3cn[nH]c3)cccn12 [Example 78, 5-((8-((1H-pyrazol-4-yl)amino)imidazo[1,2-a]pyridin-3-yl)ethynyl)-N-(3-(2-cyanopropan-2-yl)-5-(pyridin-4-yl)phenyl)-2-fluoro-4-methylbenzamide]
GI50 [1]: > 100 nM
GI50 [2]: > 100 nM
GI50 [3]: < 10 nM
GI50 [4]: 100 nM
GI50 [6]: > 5000 nM

GI50 [5]: 50 to 500 nM
SMILES: Cc1cc(F)c(C(=O)Nc2cc(CN3CCN(C(C)C)CC3)cc(C(C)(C)C#N)c2)cc1C#Cc1cnc2c(Nc3cnn(C)c3)cccn12 [Example 33, N-(3-(2-cyanopropan-2-yl)-5-((4-isopropylpiperazin-1-yl)methyl)phenyl)-2-fluoro-4-methyl-5-((8-((1-methyl-1H-pyrazol-4-yl)amino)imidazo[1,2-a]pyridin-3-yl)ethynyl)benzamide]
GI50 [1]: > 100 nM
GI50 [2]: 100 nM
GI50 [3]: < 10 nM
GI50 [4]: < 10 nM
GI50 [6]: 500 to 5000 nM

GI50 [5]: 50 to 500 nM
SMILES: Cc1cc(F)c(C(=O)Nc2cc(OCCCN(C)C)cc(C(F)(F)F)c2)cc1C#Cc1cnc2c(Nc3cnn(C)c3)cccn12 [Example 51, N-(3-(3-(dimethylamino)propoxy)-5-(trifluoromethyl)phenyl)-2-fluoro-4-methyl-5-((8-((1-methyl-1H-pyrazol-4-yl)amino)imidazo[1,2-a]pyridin-3-yl)ethynyl)benzamide]
GI50 [1]: 100 nM
GI50 [2]: 100 nM
GI50 [3]: 100 nM
GI50 [4]: < 10 nM
GI50 [6]: > 5000 nM

GI50 [5]: < 50 nM
SMILES: Cc1cc(F)c(C(=O)Nc2cc(CN3CCN(CCO)CC3)cc(C(C)(C)C#N)c2)cc1C#Cc1cnc2c(Nc3cnn(C)c3)cccn12 [Example 10, N-(3-(2-cyanopropan-2-yl)-5-((4-(2-hydroxyethyl)piperazin-1-yl)methyl)phenyl)-2-fluoro-4-methyl-5-((8-((1-methyl-1H-pyrazol-4-yl)amino)imidazo[1,2-a]pyridin-3-yl)ethynyl)benzamide]
GI50 [1]: 100 nM
GI50 [2]: 100 nM
GI50 [3]: < 10 nM
GI50 [4]: < 10 nM
GI50 [6]: 500 to 5000 nM

GI50 [5]: 50 to 500 nM
SMILES: Cc1cc(F)c(C(=O)Nc2cc(-c3cnn(C)c3)cc(C(F)(F)F)c2)cc1C#Cc1cnc2c(Nc3cn[nH]c3)cccn12 [Example 96, 5-((8-((1H-pyrazol-4-yl)amino)imidazo[1,2-a]pyridin-3-yl)ethynyl)-2-fluoro-4-methyl-N-(3-(1-methyl-1H-pyrazol-4-yl)-5-(trifluoromethyl)phenyl)benzamide]
GI50 [1]: > 100 nM
GI50 [2]: > 100 nM
GI50 [3]: 100 nM
GI50 [4]: < 10 nM
GI50 [6]: > 5000 nM

GI50 [5]: < 50 nM
SMILES: Cc1cc(F)c(C(=O)Nc2cc(Cn3cncn3)cc(C(F)(F)F)c2)cc1C#Cc1cnc2c(Nc3cnn(C)c3)cccn12 [Example 74, N-(3-((1H-1,2,4-triazol-1-yl)methyl)-5-(trifluoromethyl)phenyl)-2-fluoro-4-methyl-5-((8-((1-methyl-1H-pyrazol-4-yl)amino)imidazo[1,2-a]pyridin-3-yl)ethynyl)benzamide]
GI50 [1]: 100 nM
GI50 [2]: 100 nM
GI50 [3]: < 10 nM
GI50 [4]: < 10 nM
GI50 [6]: > 5000 nM
